Measurements published in patent US10125121B2, “FYN kinase inhibitors” (ROTTAPHARM BIOTECH S.R.L., priority 2015, dated 2018).

Key:
JB6 CI 41-5a (P+) = assay: Toxicity in JB6 cells (MTT method); format: cell-based, murine; settings: 3 μmolar, 24 hours of incubation
Procedure: Cell toxicity analysis in JB6 CI 41-5a (P+) is important to determine if the results obtained in GR assay are due to the pharmacological effect or to a toxicity effect of the products.
The murine epithelial cell line JB6 CI 41-5a (P+) (ATCC® Cat. # CRL-2010) was used to analyze the products cell toxicity by MTT method. 10^4 cells/well were plated in a 96× well plate MEM 5%. 48 h after plating the cells were pre-treated with the different compounds and positive standards for 1 h and then stimulated with TNFα (to simulate the same experimental conditions used in the gene reporter assay) for 4 and 24 h. At the end of the incubation time, the medium was removed and was substituted with a mixture 10:1 of MEM 5% MTT (2 mg/ml) for 1 h at 37° C. in the cell incubator. MTT is a tetrazolium salt especially useful for assaying the quantification of living metabolically active cells; it works by being metabolized by mitochondrial dehydrogenases to form a formazan dye (salt). After this incubation the supernatant was removed and the precipitated salt was dissolved with 100 μl of DMSO. The plate was then read at 540 nm. 100 μl of DMSO alone (without cells) were used as a blank, that was subtracted from the measure of each sample.

CFA induced hyperalgesia = assay: CFA-induced inflammatory pain in rats (Randall-Selitto paw withdrawal threshold); format: in vivo; settings: rat, 24 h after administration
Procedure: Male Wistar rats were injected into the right hind footpad with 300 μg of Mycobacterium tuberculosis in 100 μL of liquid paraffin (Complete Freund's Adjuvant; CFA). Seventy-two hours later, compounds 2 and 26 were administered subcutaneously and 24 h after the administration, the response to noxious mechanical stimulation was assessed by measuring paw withdrawal threshold (PWT) with an analgesimeter of the Randall-Selitto type. Animals were gently restrained, and steadily increasing pressure was applied to the dorsal surface of both the ipsi-lateral (CFA-treated) and the contra-lateral paw via a dome-shaped plastic tip.
100% protection means that the animal treated with the compound and CFA can tolerate the same stimulus (weight) as the control animal which has not received CFA treatment.

[1] = tested on: NF-kB activation in JB6 CI 41-5a (P+) cells; assay: Gene reporter (GR) assay, NF-kB luciferase after TNFα stimulation; format: cell-based, murine; settings: 1 h pre-treatment, 2 ng/ml TNFα for 4 h; read-out: IC50(nM) GR Inhibition
Source text: To determine if the compounds of the invention were active also in a cellular model, a gene reporter assay was established in a cell line (JB6 CI 41-5a (P+)) know to activate Fyn kinase via an inflammatory stimuli (TNFα). GR assay measures the activation of the nuclear transcription factor NF-kB, situated down-stream the Fyn activation pathway. Products active in this analysis has to penetrate in the cell and inhibit the activation pathway of NF-kB.
The murine epithelial cell line JB6 CI 41-5a (P+) (ATCC® Cat. # CRL-2010) was stably transfected with the pGL4.32[luc2P/NFkB-RE/Hygro] vector (Promega). Clonal selection was achieved by limiting dilution in MEM (+Earle's BSS+1.5 g/l sodium bicarbonate+0.1 mM NEAA)+GlutaMAX™-I, +1 mM sodium pyruvate, +5% FBS+80 μg/ml Hygromycin B. The clones were tested for their response to TNFα stimulus. The obtained transfected cells (JB6(P+) NFkB-RE-luc2P T3-C10) contained a firefly luciferase gene (luc2P) under the control of minimal TATA promoter with multiple Nuclear Factor-kB response elements (NFkB-REs). These NFkB-REs are DNA binding sequences for the NF-kB transcription factor.
JB6(P+) NFkB-RE-luc2P T3-C10 cells were used for the analysis of NF-kB activity modulation, after TNFα stimulation, by Fyn-inhibitors (Hwang et al.; Biochem. Pharmacol. 2009, 77 (7):1213-22).
6000 cells/well were plated in a 96× well plate. After 24 h new medium without antibiotics was given. After further 24 h the cells were pre-treated with the different compounds for 1 h and then stimulated with 2 ng/ml TNFα for 4 h. In each experiments two positive standards were always used, and each tested condition was analyzed in quadruplicate.
The luciferase analysis was performed with ONE-Glo™+ToxLuciferase Reporter and Cell Viability Assay kit (Promega). This assay combined luciferase assay chemistry with a cell viability marker to better understand reporter gene expression in the context of cell health. The assay uses a two-step process. The first part of the assay was a non-lytic fluorescence assay (CellTiter-Fluor™ Cell Viability Assay) that measured the relative number of live cells in a culture population, as it measures a conserved and constitutive protease activity within live cells. The live-cell protease activity was restricted to intact viable cells and was measured using a fluorogenic, cell-permeant peptide substrate (glycyl-phenylalanyl-aminofluorocoumarin; GF-AFC). The generated fluorescent signal, proportional to the number of living cells, was measured with EnVision microplate reader (PerkinElmer) using an excitation wavelength of 400 nm and emission wavelength of 500 nm.
The second part of the assay uses the ONE-Glo™ Luciferase Assay System to quantify firefly luciferase reporter gene expression. The ONE-Glo™ Assay contained a fluoro-luciferin substrate, more tolerant to sample components than standard luciferase assay reagents. Luminescence was measured with EnVision microplate reader (PerkinElmer).
Compounds of Formula (I) were tested for their capacity to penetrate into the cell and inhibit the activation pathway of NF-kB.

Pharmacokinetics in rats = format: in vivo, rat; settings: 1 mg/kg orally
[2] = tested on: mechanical hyperalgesia in meniscal tear osteoarthritis; assay: Surgically induced meniscal tear osteoarthritis in the rat (MMT); format: in vivo; settings: for Pain threshold / Pain threshold: MPE (%): 10 mg/kg daily orally
Source text: Male Sprague Dawley rats (Charles River) approximately 350 g body weight were used. Rats were anesthetized using 2.5% isoflurane in oxygen with a flow rate of 1 I per minute. The right hind leg was shaved and surgically prepared. The medial collateral ligament was exposed and transected. The meniscus was grasped with a hemostat and reflected proximally toward the femur. The meniscus was cut through its full thickness at the narrowest point. The connective tissue layer and the skin were closed with coated Vicryl 8-0 and 4-0 silk sutures, respectively. Sham operated animals underwent an identical procedure with the exception that the medial collateral ligament was exposed but not transected. After a recovery period of 2 weeks, mechanical hyperalgesia was evaluated for the following 4 weeks, once a week, before and 90 minutes after drugs administration. Pharmacological oral treatment was performed for 28 days, starting from 14 days after surgery. After 6 weeks from surgery, rats (ten animals per group) were sacrificed and the ipsilateral knee was removed for histopathological analysis.
The maximum possible effect (MPE %) was calculated by the following formula: 100*(Compound−Vehicle)/(Sham−Vehicle)

CC(C)(C)n1nc(-c2ccc(Cl)cc2)c2c(N)ncnc21 [PP2, reference compound]
percent residual cell vitality (JB6 CI 41-5a (P+)): 18% | % protective effect vs. CFA induced hyperalgesia (CFA induced hyperalgesia; 3): 45% | % protective effect vs. CFA induced hyperalgesia (CFA induced hyperalgesia; 10): 47% | IC50 [1]: 505 nM | AUC (0-24 h) (Pharmacokinetics in rats): 160 ng·h/mL | Pain threshold ([2]; day 14 post surgery): 285 g | Pain threshold ([2]; day 21 post surgery): 278 g | Pain threshold: MPE (%) ([2]; day 21 post surgery): 1.8% | Pain threshold ([2]; day 28 post surgery): 267 g | Pain threshold: MPE (%) ([2]; day 28 post surgery): 0% | Pain threshold ([2]; day 35 post surgery): 262 g | Pain threshold: MPE (%) ([2]; day 35 post surgery): 0% | Pain threshold ([2]; day 42 post surgery): 253 g | Pain threshold: MPE (%) ([2]; day 42 post surgery): 0% | tolerability ([2]; rat, oral, doses higher than 10 mg/kg): not tolerated
